Test results taken from US20220146526A1, “METHOD FOR EVALUATING SAMPLE, ANALYSIS METHOD, METHOD FOR DETECTING DEGRADED SAMPLE, MARKER FOR DETECTING DEGRADED BLOOD PLASMA SAMPLE, AND MARKER FOR DETECTING DEGRADED SERUM SAMPLE” (SHIMADZU CORPORATION, priority 2019, published 2022).

Tests used:
Assay type in all cases: physicochemical, human
[1] = GC/MS of serum sample: number of times of freezing and thawing (Table I); set-up: key to Rate of increase or decrease / Rate of increase or decrease (first value, increase): detection intensity relative to 2 freeze-thaw cycles = 1; conditions: for Rate of increase or decrease: detection intensity relative to 1 at 2 times; for Number of times when compound is affected: detection intensity changed by 30% or more vs 2 times of freezing and thawing
Experimental: (§1) After standing, the blood sample was subjected to centrifugation under a condition of room temperature, 3500 rpm, and 5 minutes. […] After centrifugation, the blood-collecting vessel was left to stand at room temperature, and the serum was isolated during this time. Here, in order to investigate how the detection intensity of molecules contained in the sample was affected in cases where the time during which the blood-collecting vessel was left at room temperature was set to 1 hour and 6 hours as compared to that in a case where the time was set to 30 minutes, preparations were performed under the respective conditions of 30 minutes, 1 hour, and 6 hours. The obtained serum sample was frozen and stored. Here, in order to investigate how the detection intensity of molecules contained in the sample was affected in cases where freezing and thawing was performed 4 times, 6 times, and 10 times after freezing as compared to that in a case where freezing and thawing was performed 2 times after freezing, freezing and thawing was performed under the respective conditions of 2, 4, 6, and 10 times.
(§2) Frozen blood plasma samples and serum samples were subjected to GC/MS or LC/MS. In GC/MS, the blood plasma samples and serum samples were subjected to methoxymation and trimethylsilylation and then introduced to GC-MS.
(§3) GC/MS was conducted using GCMS·TQ8040 (Shimadzu Corporation) that was a GC·MS equipped with AOC·20i (Shimadzu Corporation) as an autosampler.
(§4) Column: BPX5 (inner diameter of 0.25 mm, length of 30 m, and film thickness of 0.25 μm) (SGE)
(§5) Column temperature: maintained at 60° C. for 2 minutes, then raised at 15° C./min, and maintained at 330° C. for 3 minutes.
(§6) Inlet temperature: 250° C.
(§7) Carrier gas control mode: constant linear velocity of 39.0 cm/sec
(§8) Sample introduction method: split (split ratio of 30:1) Injection volume: 1 μL
(§9) Ionization method: electron ionization
(§10) Ionization current: 60 μA
(§11) Interface temperature: 280° C.
(§12) Ion source temperature: 200° C.
(§13) Mode: multiple reaction monitoring (MRM)
The rate of increase or decrease in Table I is the value of detection intensity relative to 1 that is the detection intensity in a case where the number of times of freezing and thawing is set to 2 times.

[2] = GC/MS of serum sample: time from blood collection to centrifugation (Table G); conditions: blood collection to centrifugation; for Rate of increase or decrease: detection intensity relative to 1 at 15 minutes; for Increase or decrease: detection intensity
Experimental: as §1, §2, §3, §4, §5, §6, §7, §8, §9, §10, §11, §12, §13
The rate of increase or decrease in Table G is the value of detection intensity relative to 1 that is the detection intensity in a case where the time from blood collection to centrifugation is set to 15 minutes.

[3] = LC/MS of serum sample: number of times of freezing and thawing (Table M); set-up: key to Rate of increase or decrease: detection intensity relative to 1 at 2 freeze-thaw cycles; conditions: for Number of times when compound is affected / Increase or decrease: serum sample, LC/MS; for Number of times when compound is affected: detection intensity changed by 30% or more vs 2 times of freezing and thawing; for Increase or decrease: detection intensity vs 2 times of freezing and thawing
Experimental: as §1, §2
Analysis column: Discovery HS F5-3 (inner diameter of 2.1 mm, length of 150 mm, film thickness of 3 μm) (Sigma-Aldrich)
Column temperature: 40° C.
(A) 0.1% formic acid (dissolved in water)
(B) 0.1% formic acid (dissolved in acetonitrile)
Flow velocity: 0.25 mL/min
Ionization method: electrospray
Temperature: • Desolvation Line (DL) temperature: 250° C. • Heat block temperature: 400° C. • Interface temperature: 300° C.
Gas flow rate: • Nebulizer gas flow rate: 3.0 L/min • Drying gas flow rate: 10.0 L/min • Heating gas flow rate: 10.0 L/min
as §13
The rate of increase or decrease in Table M is the value of detection intensity relative to 1 that is the detection intensity in a case where the number of times of freezing and thawing is set to 2 times.

[4] = GC/MS of serum sample: time from centrifugation to isolation (Table H); set-up: key to Rate of increase or decrease / Rate of increase or decrease (first value, increase): detection intensity relative to 1 at 30 min centrifugation-to-isolation; conditions: for Increase or decrease: detection intensity; for Rate of increase or decrease: detection intensity relative to 1 at 30 minutes
Experimental: as §1, §2, §3, §4, §5, §6, §7, §8, §9, §10, §11, §12, §13
The rate of increase or decrease in Table H is the value of detection intensity relative to 1 that is the detection intensity in a case where the time from centrifugation to isolation is set to 30 minutes.

[5] = serum, GC/MS, freezing and thawing 6 times
[6] = detection intensity, serum, GC/MS, freezing and thawing 6 times vs 2 times
[7] = 10 times of freezing and thawing
[8] = serum sample, GC/MS, detection intensity vs 2 times of freezing and thawing
[9] = serum, GC/MS, freezing and thawing 4 times
[10] = detection intensity, serum, GC/MS, freezing and thawing 4 times vs 2 times

SMILES	Rate of increase or decrease [1, 7]	Number of times when compound is affected ([1]; serum sample, GC/MS)	Increase or decrease [1, 8]	Rate of increase or decrease ([2]; after 8 hours)	Increase or decrease ([2]; after 8 hours vs 15 minutes)	other results
Nc1c(O)cccc1C(=O)O [3-Hydroxyanthranyl acid]						Rate of increase or decrease [1, 5]: 1.34; Increase or decrease [1, 6]: Increase; Rate of increase or decrease ([2]; after 4 hours): 0.59; Increase or decrease ([2]; after 4 hours vs 15 minutes): Decrease
OC[C@@H](O)[C@@H](O)[C@H](O)[C@@H](O)CO [Sorbitol]	0.61	10 times	Decrease	1.54	Increase	
CCCCCCCCCCCCCCCCC(=O)O [Margaric acid, margaric acid]	1.35	10 times	Increase			
C[C@@H](O)[C@H](N)C(=O)O [Threonine, threonine]						Rate of increase or decrease ([3]; 6 times of freezing and thawing, relative to 1 at 2 times, different from individual to individual, first value (increase)): 1.31; Rate of increase or decrease ([3]; 6 times of freezing and thawing, relative to 1 at 2 times, different from individual to individual, second value (decrease)): 0.69; Number of times when compound is affected [3]: 6 times; Increase or decrease [3]: Different from individual
O=C(O)CCO [3-Hydroxypropionic acid]						Rate of increase or decrease [1, 9]: 0.55; Increase or decrease [1, 10]: Decrease; Increase or decrease ([4]; after 6 hours vs 30 minutes): Different from individual; Rate of increase or decrease (second value, decrease) ([4]; different from individual to individual, individuals with decrease, relative to 1 at 30 minutes, after 6 hours): 0.65; Rate of increase or decrease (first value, increase) ([4]; different from individual to individual, individuals with increase, relative to 1 at 30 minutes, after 6 hours): 1.91
CCCCCCCCCC(=O)O [Decanoic acid]				0.69	Decrease	
CCCCCCCC/C=C\CCCCCCCC(N)=O [Oleamide]						Rate of increase or decrease [1, 9]: 2.08; Increase or decrease [1, 10]: Increase
CC(=O)C(=O)O [Pyruvic acid]						Rate of increase or decrease ([4]; after 1 hour): 0.66; Increase or decrease ([4]; after 1 hour vs 30 minutes): Decrease; Rate of increase or decrease ([2]; after 4 hours): 0.65; Increase or decrease ([2]; after 4 hours vs 15 minutes): Decrease
O=C[C@H](O)[C@H](O)[C@H](O)[C@H](O)CO [Allose]						Rate of increase or decrease [1, 5]: 0.62; Increase or decrease [1, 6]: Decrease
CCCCCCCCC(=O)O [Pelargonic acid, pelargonic acid]	0.67	10 times	Decrease			
N[C@H]1C(O)O[C@H](CO)[C@@H](O)[C@@H]1O (stereo partly drawn) [Glucosamine]	2.43	10 times	Increase			Rate of increase or decrease ([4]; after 6 hours): 1.69; Increase or decrease ([4]; after 6 hours vs 30 minutes): Increase
O[C@H]1[C@H](O)[C@@H](O)[C@H](O)[C@@H](O)[C@H]1O [Inositol]				1.46	Increase	
OC[C@@H](O)[C@@H](O)CO [Meso-erythritol]	0.69	10 times	Decrease	0.66	Decrease	
OC[C@@H](O)[C@@H](O)[C@@H](O)CO [Ribitol]				1.44	Increase	Rate of increase or decrease ([4]; after 1 hour): 2.32; Increase or decrease ([4]; after 1 hour vs 30 minutes): Increase
N[C@@H](Cc1ccccc1)C(=O)O [Phenylalanine, phenylalanine]						Rate of increase or decrease ([3]; 10 times of freezing and thawing, detection intensity relative to 1 at 2 times): 0.57; Number of times when compound is affected [3]: 10 times; Increase or decrease [3]: Decrease
Cc1ncc(CO)c(CN)c1O [Pyridoxamine]	0.61	10 times	Decrease			Rate of increase or decrease ([2]; after 4 hours): 1.52; Increase or decrease ([2]; after 4 hours vs 15 minutes): Increase
OC[C@@H](O)[C@H](O)[C@@H](O)CO [Xylitol]				0.62	Decrease	
